Results from ChEMBL document CHEMBL1157539, “Thousands of chemical starting points for antimalarial lead identification” (Nature, 2010).

tested on: Plasmodium falciparum; experiment: GSK_TCMDC: Inhibition of Plasmodium falciparum 3D7 in whole erythrocytes, using parasite LDH activity as an index of growth.; assay type: functional, organism-based; details: Plasmodium falciparum, 3D7

SMILES	XC50 [nM]
Cc1[nH]c(C)c(-c2ccc(-c3ccc(F)cc3)nc2)c(=O)c1Br	248
CC(C)N1CCC(NC(=O)N2CCCN(c3ncnc4cc(-c5ccccc5)sc34)CC2)CC1	861
CC(C)[C@H](NC(=O)c1ccc(O)c(-c2cccc(C(F)(F)F)c2)c1)C(=O)NCCN1CCCCC1	836
COc1ccc2nccc([C@@H](O)CN3CCC(NC(=O)/C=C/c4ccc5cc(C)[nH]c5c4)CC3)c2c1	728
CN(Cc1cccc(O)c1)C1CCN(c2cc(NC(=O)c3cccc(F)c3)ccn2)CC1	847
CC(C)(C)c1ccc2[nH]c(-c3ccc(C(=O)NCCCc4ccccc4)cc3)nc2c1	801
Clc1ccc(OCc2ccccc2)c(-c2nc(-c3nc4ncc(Br)cc4[nH]3)cs2)c1	214
Cc1ccc(C(=O)c2oc3ccc4c(C)cc(=O)oc4c3c2C)cc1	1030
Nn1c(=O)oc2ccc(Cl)cc2c1=O	187
CC(C)Cn1c(Sc2ccc(C#N)c([N+](=O)[O-])c2)nnc1-c1ccccc1	1090
O=C(Nc1ccc(N2CCCCC2)c(Cl)c1)c1ccco1	409
COc1ccc(C2CCN(CCCCNC(=O)c3ccc(NC(=O)c4ccc(Cl)cc4)cc3)C2)c(OC)c1 (stereo not given)	1200
Cc1ccc(NC(=O)N2CCCN(CCCCCNC(=O)/C=C/c3ccc(Cl)c(Cl)c3)CC2)cc1	758
Cc1cc(N)nc2ccc(-c3ccc(CN)cc3)cc12	621
Cc1cc(NCCCCCCCCNc2cc(C)nc3ccccc23)c2ccccc2n1	985
O=C(NC1CC1)c1cnc(N2CCC(OCc3ccccc3)CC2)c(Cl)c1	1400
COC(=O)c1cccc(CNCc2cccc(-c3ccc(-c4nc5ccccc5[nH]4)s3)c2)c1	491
CC(NCCc1cccc(Cl)c1)C(O)c1ccc(OCCCCCCOc2ccc(C(O)C(C)NCCc3cccc(Cl)c3)cc2)cc1 (stereo not given)	399
O=C(c1c(-c2[nH]c3ccccc3c2C(=O)C(F)(F)F)[nH]c2ccccc12)C(F)(F)F	746
O=C(Nc1ccc(C(=O)Oc2ccc(-c3ccccc3)cc2)cc1)N[C@@H](Cc1ccc(O)cc1)C(=O)NC1CCN(Cc2ccc(O)cc2)C1 (stereo not given in full)	803
Cc1ccc(CN2CCC(C(=O)Nc3ccc(-c4cc5ccccc5[nH]4)cc3)CC2)o1	1420
Cc1cnc(NCC2CCCCC2)nc1N[C@@H](CO)C(=O)Nc1ccccc1	1100
N=C(N)NC(=O)Nc1ccc(Cl)c(Cl)c1	1040
CN1CCN(c2ccnc3ccc(NC(=O)Nc4ccc(-c5ccncc5)c5ccccc45)cc23)CC1	312

SMILES	XC50 [nM]
CCc1c(C(=O)NC2CCC(N3CCC(c4ccccc4OC)CC3)CC2)[nH]c2ccc(OC)cc12 (stereo not given)	1110
O=C(/C=C/c1ccc(F)cc1)NC1CCC(CCN2CCCN(c3ccc(C(F)(F)F)cn3)CC2)CC1 (stereo not given)	1080
Cc1cc(C(=O)N[C@H]2CCN(Cc3ccc(OCCCN(C)C)cc3)C2)ccc1Br	898
c1cncc(CCNCc2cccc(-c3ccc(-c4nc5ccccc5[nH]4)s3)c2)c1	202
COc1ccccc1N1CCN(CCCCN(C(=O)Nc2cccc(Cl)c2)C(=O)Nc2cccc(Cl)c2)CC1	707
C=CCOc1ccc(-c2c(C)[nH]c(C)c(Br)c2=O)cc1	283
Cc1cccc2nc(-c3ccc(-c4cccc(NC(=O)NCc5cccc(F)c5)c4)s3)[nH]c12	760
Cc1ccc(NC(=O)c2ccc(-c3cc4cc(Cl)c(Cl)cc4[nH]3)cc2)cc1OCCN1CCCC1	991
O=C(Nc1ccc2c(c1)CCN2C1CCN(Cc2cccc(F)c2F)C1)c1ccco1 (stereo not given)	787
CCCN/C=N/c1cc(-c2csc(NC(=N)N)n2)cc([N+](=O)[O-])c1	1740
CCc1ccc(CN2CCC(CN(C(=O)c3ccccc3)c3ccc(Cl)cc3)CC2)cc1	991
COc1ccc(Nc2nccc(-c3ccc4c(-c5ccsc5)cnc(N)c4c3)n2)cc1	236
CCOC(=O)c1ccc(NC(=O)Nc2cccc(-c3cccc(-c4nc5cc(F)ccc5[nH]4)c3)c2)cc1	94.7
Cc1cc(N[C@@H](Cc2ccccc2)C(=O)NCc2cccs2)nc(NCCc2ccccn2)n1	1280
C/C=C1\CN2CC[C@H]1C[C@H]2[C@H](O)c1ccnc2ccc(OC)cc12	318
COc1ccccc1NC(=O)Nc1cccc(-c2ccc(-c3nc4cccc(C)c4[nH]3)s2)c1	579
CCCCCC(C)C(C)c1cc(O)c2c(c1)OC(C)(C)C=C2c1cc[n+]([O-])cc1 (stereo not given)	1190
COc1cccc(C(=O)C2CC2CN2CC=C(c3c[nH]c4ccc(OC)nc34)CC2)c1 (stereo not given)	526
COc1ccccc1CNc1nc(Nc2ccccc2C)nc2ccccc12	806
CCc1cc2c(=O)c(-c3nc(C)cs3)c([C@H](N)Cc3ccc(O)cc3)oc2cc1O	902
CCn1ncc2c(N3CCCC3=O)cc(C(=O)N[C@@H](Cc3ccccc3)[C@H](O)CNC(C)(C)c3cccc(OC)c3)cc21	107
COc1cc(Cc2cnc(NCCN3CCNCC3)nc2N)ccc1OCc1ccc(C(F)(F)F)cc1	922
Cc1ccc(O)cc1Nc1ccnc2ccc(C(C)(C)C)cc12	1250
CN1CCCC(CN2CCN(Cc3cccc(-c4csc(-c5nc6ccccc6[nH]5)c4)c3)CC2)C1 (stereo not given)	414

SMILES	XC50 [nM]
COc1cc(F)c2ncc(Cl)c([C@H](O)CN3CCC(NCc4ccc5c(n4)NC(=O)CO5)CC3)c2c1	161
COc1ccc2ncc(F)c(NC(=O)C3CCC(NCc4cc5c(F)cccc5[nH]4)CC3)c2n1 (stereo not given)	1090
CC(C)(C)CC(C)(C)c1ccc(O)c(CNC2CCCCC2)c1	64.9
Cc1ccc(NC(=O)c2ccc(C(=O)NC3CCN(CC4CCCCC4)CC3)cc2)cc1	903
N#Cc1cccc(-c2cnc(N)c(-c3nc4cc(S(N)(=O)=O)ccc4[nH]3)c2)c1	644
Oc1ccccc1Nc1nc(NCc2ccco2)c2ccccc2n1	644
O=C(N[C@@H](Cc1ccccc1)C(=O)NC1CCCCC1)c1ccc(O)c(-c2cccc(C(F)(F)F)c2)c1	809
COc1ccc2c(c1)Nc1ccc(Cl)cc1C2N (stereo not given)	303
Cc1nc(N)nc(N)c1-c1cccc(Cl)c1	1170
CC1(C)N=C(N)N=C(N)N1OCCCOc1cccc(C(=O)O)c1	39.9
Cc1ccc(C2CCN(CCCCNC(=O)c3ccc(NC(=O)c4ccc(Cl)cc4)cc3)CC2)c(OCC2CC2)c1	887
O=C(NCc1ccc(Cl)cc1)c1ccc(CN2CCCN(Cc3cccc(O)c3)CC2)cc1	1170
CCN(CC)c1cc(C)c2cc(NC(=O)c3cc(=O)c4ccccc4o3)ccc2n1	224
CCc1cn2c3c(cc(C(=O)N[C@@H](Cc4ccccc4)[C@H](O)CN[C@@H](C)CC)cc13)N(C)S(=O)(=O)CC2	74.5
CCc1cc2c(Sc3nc4ccccc4[nH]3)ncnc2s1	823
COc1ccc(CNCc2cccc(-c3ccc(-c4nc5ccccc5[nH]4)s3)c2)cc1	816
O=C(Nc1ccc(CN2CCOCC2)cc1)c1ccc(-c2cc(Cl)ccc2Cl)o1	613
O=C(Nc1ccc(-c2nc3ccccc3[nH]2)cc1)c1ccc(Cl)s1	595
Cc1ccc2[nH]c(C)cc(=NN=Cc3ccccc3Cl)c2c1	752
COc1ccc(C(=O)c2ccc3[nH]cc(C4=CCN(C)CC4)c3c2)cc1	1050
Cc1cc(NC(=O)NCCN2CCC(NC(=O)c3ccc(C(F)(F)F)cc3)CC2)c2ccccc2n1	413
COc1ccc(S(=O)(=O)N(CCCN2CCN(C)CC2)Cc2csc(-c3ccc(CNCc4ccccc4)cc3)n2)cc1	949
